Measured values published in patent US20250152592A1, “PHARMACEUTICAL COMPOSITION COMPRISING ALLOPURINOL, FEBUXOSTAT OR PHARMACEUTICALLY ACCEPTABLE SALT THEREOF FOR PREVENTION OR TREATMENT OF CHRONIC KIDNEY DISEASE IN SUBJECT HAVING HIGH SERUM URIC ACID CONCENTRATION” (Indream Healthcare Inc., priority 2022, published 2025).

How the values were obtained:
[1] = tested on: patients with gout and a history of major cardiovascular diseases; test: eGFR over time by average serum uric acid concentration, analysis of clinical trial data; format: in vivo, human; conditions: for eGFR Mean (95% CI): allopurinol group
Protocol: In order to evaluate non-inferiority of febuxostat to allopurinol related to cardiovascular risk, a clinical trial was designed and proceeded.
A multicenter, randomized, double-blind non-inferiority trial was performed. The details of the clinical trial design have been published previously. An independent data and safety monitoring committee with access to unblinded data monitored the clinical trial. The statistical analysis for the data and the safety monitoring committee was performed by an independent statistical group (WebbWrites).
The patients were regarded as having a history of major cardiovascular diseases, if they had myocardial infarction, hospitalization for unstable angina, stroke, hospitalization for transient ischemic attack, peripheral vascular disease, or diabetes mellitus symptoms. All participants provided a prior informed consent form.
The patients were randomly assigned so that they received febuxostat or allopurinol administered once a day in a double-blind manner. The randomization was stratified according to the estimated creatinine clearance at baseline (patient group having an estimated creatinine clearance ≥60 ml per minute vs patient group having an estimated creatinine clearance ≥30 and <60 ml per minute).
The dose of allopurinol was modified according to a kidney function. The patients with the estimated creatinine clearance 60 ml or more per minute i) initially received allopurinol at a dose of 300 mg once a day, and the dose was increased in 100 mg increments monthly until the patient had the serum uric acid concentration of less than 6.0 mg per deciliter or the dosage of allopurinol was 600 mg once a day. The patient having the estimated creatinine clearance of 30 ml or more and less than 60 ml per minute initially received 200 mg of allopurinol, and then the dose was increased in 100 mg increments until the patient either had the serum uric acid concentration of less than 6.0 mg per deciliter or was receiving the allopurinol dose of 400 mg once daily.
The dose of febuxostat was not modified according to the kidney function. The patients who were randomly assigned to receive febuxostat initially received 40 mg once a daily, and continued to receive the same dosage if the serum uric acid concentration was less than 6.0 mg per deciliter after 2 weeks of the treatment. If the serum uric acid concentration was higher than 6.0 mg per deciliter at 2nd week visit, the dose of febuxostat was increased to 80 mg once daily for the remainder of the trial.
During the period, the administration of a double-blind and double-dummy trial medications was guided by an interactive voice-response system which was a procedure to prevent unblinding for the patients whose dose was not adjusted. After completing dose adjustment, the urate level was concealed from the investigators, and the treatment was managed throughout the trial using the interactive voice-response system.
Outpatient visits were conducted according to the following schedule: during screening and randomization, and at 2, 4, 6, 8, 10, 12, and 24 weeks after the randomization, and every 6 months during the subsequent years of the trial. The patients with reduced kidney function or, the patients aged 65 years or older at randomization were visited at 9 and 15 months for monitoring the serum chemical profile. If the patient agreed to be monitored, but would not return for study visit, telephone contact was made, but such method was not preferred or recommended.
In order to confirm the effect of allopurinol and febuxostat on the kidney disease, the data obtained in the clinical trial described above was analyzed.

[2] = cited from earlier work

SMILES: Oc1ncnc2[nH]ncc12 [allopurinol]
- eGFR Mean (95% CI) ([1]; No congestive cardiac failure history, Average UA <6, Month 3): 67.32 (66.24-68.40) ml/min/1.73 m^2
- eGFR Mean (95% CI) ([1]; No congestive cardiac failure history, Average UA <6, Month 12): 68.74 (67.63-69.86) ml/min/1.73 m^2
- eGFR Mean (95% CI) ([1]; No congestive cardiac failure history, Average UA <6, Month 18): 68.64 (67.39-69.88) ml/min/1.73 m^2
- eGFR Mean (95% CI) ([1]; No congestive cardiac failure history, Average UA <6, Month 24): 68.73 (67.42-70.03) ml/min/1.73 m^2
- eGFR Mean (95% CI) ([1]; No congestive cardiac failure history, Average UA <6, Month 30): 69.45 (68.01-70.89) ml/min/1.73 m^2
- eGFR Mean (95% CI) ([1]; No congestive cardiac failure history, Average UA <6, Month 36): 68.02 (66.49-69.55) ml/min/1.73 m^2
- eGFR Mean (95% CI) ([1]; No congestive cardiac failure history, Average UA <6, Month 42): 67.59 (65.93-69.25) ml/min/1.73 m^2
- eGFR Mean (95% CI) ([1]; No congestive cardiac failure history, Average UA <6, Month 48): 68.44 (66.56-70.31) ml/min/1.73 m^2
- eGFR Mean (95% CI) ([1]; No congestive cardiac failure history, Average UA <6, Month 54): 67.90 (65.79-70.00) ml/min/1.73 m^2
- eGFR Mean (95% CI) ([1]; No congestive cardiac failure history, Average UA <6, Month 60): 68.53 (66.05-71.01) ml/min/1.73 m^2
- eGFR Mean (95% CI) ([1]; No congestive cardiac failure history, Average UA <6, Week 2): 66.55 (65.48-67.62) ml/min/1.73 m^2
- eGFR Mean (95% CI) ([1]; No congestive cardiac failure history, Average UA ≥6, Baseline): 66.51 (64.92-68.09) ml/min/1.73 m^2
- eGFR Mean (95% CI) ([1]; No congestive cardiac failure history, Average UA ≥6, Month 12): 66.77 (65.07-68.46) ml/min/1.73 m^2
- eGFR Mean (95% CI) ([1]; No congestive cardiac failure history, Average UA ≥6, Month 18): 66.07 (64.15-67.99) ml/min/1.73 m^2
- eGFR Mean (95% CI) ([1]; No congestive cardiac failure history, Average UA ≥6, Month 24): 65.54 (63.37-67.72) ml/min/1.73 m^2
- eGFR Mean (95% CI) ([1]; No congestive cardiac failure history, Average UA ≥6, Month 30): 65.30 (62.89-67.70) ml/min/1.73 m^2
- eGFR Mean (95% CI) ([1]; No congestive cardiac failure history, Average UA ≥6, Month 36): 65.27 (62.40-68.13) ml/min/1.73 m^2
- eGFR Mean (95% CI) ([1]; No congestive cardiac failure history, Average UA ≥6, Month 42): 63.38 (60.35-66.41) ml/min/1.73 m^2
- eGFR Mean (95% CI) ([1]; No congestive cardiac failure history, Average UA ≥6, Month 48): 63.38 (59.80-66.95) ml/min/1.73 m^2
- eGFR Mean (95% CI) ([1]; No congestive cardiac failure history, Average UA ≥6, Month 54): 66.44 (62.69-70.18) ml/min/1.73 m^2
- eGFR Mean (95% CI) ([1]; No congestive cardiac failure history, Average UA ≥6, Month 60): 63.14 (59.01-67.28) ml/min/1.73 m^2
- eGFR Mean (95% CI) ([1]; No congestive cardiac failure history, Average UA ≥6, Week 2): 66.92 (65.28-68.56) ml/min/1.73 m^2
- eGFR Mean (95% CI) ([1]; SBP <130, Average UA <6, Baseline): 65.08 (63.67-66.50) ml/min/1.73 m^2
- eGFR Mean (95% CI) ([1]; SBP <130, Average UA <6, Month 3): 66.19 (64.73-67.66) ml/min/1.73 m^2
- eGFR Mean (95% CI) ([1]; SBP <130, Average UA <6, Month 6): 66.44 (64.96-67.92) ml/min/1.73 m^2
- eGFR Mean (95% CI) ([1]; SBP <130, Average UA <6, Month 12): 67.55 (66.04-69.06) ml/min/1.73 m^2
- eGFR Mean (95% CI) ([1]; SBP <130, Average UA <6, Month 18): 67.41 (65.73-69.08) ml/min/1.73 m^2
- eGFR Mean (95% CI) ([1]; SBP <130, Average UA <6, Month 24): 67.26 (65.46-69.07) ml/min/1.73 m^2
- eGFR Mean (95% CI) ([1]; SBP <130, Average UA <6, Month 30): 68.14 (66.20-70.08) ml/min/1.73 m^2
- eGFR Mean (95% CI) ([1]; SBP <130, Average UA <6, Month 36): 67.41 (65.30-69.51) ml/min/1.73 m^2
- eGFR Mean (95% CI) ([1]; SBP <130, Average UA <6, Month 42): 67.67 (65.45-69.89) ml/min/1.73 m^2
- eGFR Mean (95% CI) ([1]; SBP <130, Average UA <6, Month 48): 67.55 (64.98-70.13) ml/min/1.73 m^2
- eGFR Mean (95% CI) ([1]; SBP <130, Average UA <6, Month 54): 67.54 (64.81-70.27) ml/min/1.73 m^2
- eGFR Mean (95% CI) ([1]; SBP <130, Average UA <6, Month 60): 66.85 (63.63-70.06) ml/min/1.73 m^2
- eGFR Mean (95% CI) ([1]; SBP <130, Average UA <6, Week 2): 65.12 (63.70-66.55) ml/min/1.73 m^2
- eGFR Mean (95% CI) ([1]; SBP <130, Average UA ≥6, Baseline): 61.00 (58.76-63.25) ml/min/1.73 m^2
- eGFR Mean (95% CI) ([1]; SBP <130, Average UA ≥6, Month 3): 62.77 (60.42-65.12) ml/min/1.73 m^2
- eGFR Mean (95% CI) ([1]; SBP <130, Average UA ≥6, Month 6): 62.65 (60.33-64.97) ml/min/1.73 m^2
- eGFR Mean (95% CI) ([1]; SBP <130, Average UA ≥6, Month 12): 62.21 (59.86-64.55) ml/min/1.73 m^2
- eGFR Mean (95% CI) ([1]; SBP <130, Average UA ≥6, Month 18): 62.34 (59.64-65.04) ml/min/1.73 m^2
- eGFR Mean (95% CI) ([1]; SBP <130, Average UA ≥6, Month 24): 60.72 (57.61-63.83) ml/min/1.73 m^2
- eGFR Mean (95% CI) ([1]; SBP <130, Average UA ≥6, Month 30): 62.43 (59.06-65.81) ml/min/1.73 m^2
- eGFR Mean (95% CI) ([1]; SBP <130, Average UA ≥6, Month 36): 61.08 (57.19-64.97) ml/min/1.73 m^2
- eGFR Mean (95% CI) ([1]; SBP <130, Average UA ≥6, Month 42): 60.98 (56.66-65.31) ml/min/1.73 m^2
- eGFR Mean (95% CI) ([1]; SBP <130, Average UA ≥6, Month 48): 64.66 (59.55-69.76) ml/min/1.73 m^2
- eGFR Mean (95% CI) ([1]; SBP <130, Average UA ≥6, Month 54): 64.80 (59.14-70.46) ml/min/1.73 m^2
- eGFR Mean (95% CI) ([1]; SBP <130, Average UA ≥6, Month 60): 65.01 (58.65-71.37) ml/min/1.73 m^2
- eGFR Mean (95% CI) ([1]; SBP <130, Average UA ≥6, Week 2): 62.24 (60.01-64.47) ml/min/1.73 m^2
- prevention or treatment of chronic kidney disease when serum uric acid maintained below 6 ([1]; blood glucose ≥126 mg/dl, DBP ≤80 mm/Hg, SBP ≤130 mm/Hg, or no congestive cardiac failure): effectively prevented or treated
- drug-induced nephrotoxicity ([2]; Am Fam Physician. 2008 September): causes acute interstitial nephritis
- effect on kidney function ([2]; Kaohsiung J Med Sci. 2005 May;21(5):228-32): worsens kidney function
- acute renal failure reported more often ([2]; post-marketing study, Arthritis Research & Therapy volume 21, Article number: 229 (2019)): 3.3 times
